Test results: patent publication US3958014A, “Process for preparing injection-purpose fluorocarbon emulsion capable of carrying oxygen” (The Green Cross Corporation, priority 1970, dated 1976)

How the values were obtained:
[1] = accumulation of intravenously injected fluorocarbon in liver and spleen; assay type: in vivo, laboratory animals; conditions: for fluorocarbon administered remaining in the organs (liver and spleen): 8 weeks from administration
Experimental: (§1) The present invention is specific in a number of aspects both as to the nature of materials used and the particle sizes and the like, of the resulting emulsion. These parameters were not arrived at casually but rather were determined through a systematic course of investigations which are discussed below. Parameters not expressly discussed below will be apparent to the skilled worker and appropriate conditions will be appreciated. Fluorocarbon - The sole fluorocarbons applicable to the present invention are perfluorodecalin or perfluoromethyldecalin or their mixture. A surfactant or emulsifying agent is also used and surfactant capable of emulsifying and stabilizing these fluorocarbons is egg yolk lecithin and preferably in an amount of from about 3 W/V % to 5 W/V % based on emulsion. There are a number of good reasons for the specificity of the fluorocarbon compounds that are useful.
On the other hand when an emulsion of perfluorodecalin and perfluoromethyldecalin is injected into the veins, of laboratory animals their accumulated in the animal's liver and spleen is very small. For example, perfluorodecalin is as low as zero % and perfluoromethyldecalin is 1.5% even after 8 weeks.

laboratory animal = experiment: toxicity on injection of fluorocarbon emulsion into veins; assay type: in vivo, laboratory animals; conditions: emulsion injected into the veins
Experimental: as §1

Row | Compound | accumulation in the animal's liver and spleen ([1]; i.v. emulsion) | fluorocarbon administered remaining in the organs (liver and spleen) ([1]; i.v. emulsion) | toxicity (laboratory animal) | lung hazard (laboratory animal) | accumulation in the animal's liver and spleen ([1]; in vivo, iv)
1 | FC(F)(F)C(F)(F)C(F)(F)C(F)(F)N(C(F)(F)C(F)(F)C(F)(F)C(F)(F)F)C(F)(F)C(F)(F)C(F)(F)C(F)(F)F [FC-43, perfluorotributylamine] | most of these fluorocarbons are accumulated in the animal's liver and spleen | up to 40% | the toxicity resulting from the accumulation appears | – | –
2 | FC(F)(F)C(F)(F)C(F)(F)C(F)(F)C1(F)OC(F)(F)C(F)(F)C1(F)F (centres unmarked) [FX-80, perfluorobutyltetrahydrofuran] | – | – | its toxicity is quite high | a remarkable lung hazard appears | –
3 | FC(OC(F)(F)C(F)(OC(F)(F)C(F)(OC(F)(F)C(F)(OC(F)(F)C(F)(F)C(F)(F)F)C(F)(F)F)C(F)(F)F)C(F)(F)F)C(F)(F)F (centres unmarked) [Freon E4, 2-monohydro-nonacosafluoro3,6,9,12-tetraoxa-5,8,11-trimethylpentadecane] | most of these fluorocarbons are accumulated in the animal's liver and spleen | up to 40% | the toxicity resulting from the accumulation appears | – | –
4 | FC1(F)C(F)(F)C(F)(F)C2(F)C(F)(F)C(F)(F)C(F)(F)C(F)(F)C2(F)C1(F)F (centres unmarked) [perfluorodecalin] | – | – | – | – | very small
5 | perfluoromethyldecalin | very small | 1.5% | – | – | –
